{
  "source": "ChEMBL document CHEMBL3593167",
  "about": "“Synthesis and anti-Trypanosoma cruzi activity of new 3-phenylthio-nor-β-lapachone derivatives” (Bioorg Med Chem, 2015)",
  "key": {"Trypanosoma cruzi": {"tested_on": "Trypanosoma cruzi", "assay": "Trypanocidal activity against Trypanosoma cruzi Y bloodstream trypomastigotes in presence of 10% mouse blood assessed as induction of parasite lysis incubated for 24 hrs by Neubauer chamber based cell counting method", "assay_type": "functional, organism-based"}, "[1]": {"assay": "Toxicity against mouse HMC incubated for 24 hrs", "conditions": "HMC cells, read-out: LC50"}, "[2]": {"assay": "Selectivity index, ratio of LC50 for mouse HMC to IC50 for Trypanosoma cruzi Y bloodstream trypomastigotes"}},
  "data": [
    {"smiles": "CC1(C)OC2=C(C(=O)C(=O)c3ccccc32)C1Sc1ccccc1", "note": "(stereo not given)", "values": [
      {"measurement": "IC50", "setting": "Trypanosoma cruzi", "value": 32.3, "unit": "µM"},
      {"measurement": "CC50 at 24 h", "setting": "[1]", "value": 17.5, "unit": "µM"},
      {"measurement": "Ratio LC50/IC50", "setting": "[2]", "value": 0.54}
    ]},
    {"smiles": "CC1(C)OC2=C(C(=O)C(=O)c3ccccc32)C1Sc1c(F)c(F)c(F)c(F)c1F", "note": "(stereo not given)", "values": [
      {"measurement": "IC50", "setting": "Trypanosoma cruzi", "value": 183, "unit": "µM"}
    ]},
    {"smiles": "Cc1ccc(SC2C3=C(OC2(C)C)c2ccccc2C(=O)C3=O)cc1", "note": "(stereo not given)", "values": [
      {"measurement": "IC50", "setting": "Trypanosoma cruzi", "value": 59.5, "unit": "µM"},
      {"measurement": "CC50 at 24 h", "setting": "[1]", "value": 20.5, "unit": "µM"},
      {"measurement": "Ratio LC50/IC50", "setting": "[2]", "value": 0.34}
    ]},
    {"smiles": "CC1(C)OC2=C(C(=O)C(=O)c3ccccc32)C1Sc1ccc(F)cc1", "note": "(stereo not given)", "values": [
      {"measurement": "IC50", "setting": "Trypanosoma cruzi", "value": 165, "unit": "µM"}
    ]},
    {"smiles": "Cc1cccc(SC2C3=C(OC2(C)C)c2ccccc2C(=O)C3=O)c1", "note": "(stereo not given)", "values": [
      {"measurement": "IC50", "setting": "Trypanosoma cruzi", "value": 83.6, "unit": "µM"},
      {"measurement": "CC50 at 24 h", "setting": "[1]", "value": 25.8, "unit": "µM"},
      {"measurement": "Ratio LC50/IC50", "setting": "[2]", "value": 0.31}
    ]},
    {"smiles": "COc1ccc(SC2C3=C(OC2(C)C)c2ccccc2C(=O)C3=O)cc1", "note": "(stereo not given)", "values": [
      {"measurement": "IC50", "setting": "Trypanosoma cruzi", "value": 158, "unit": "µM"}
    ]},
    {"smiles": "CC1(C)OC2=C(C(=O)C(=O)c3ccccc32)C1Sc1ccc(Cl)cc1", "note": "(stereo not given)", "values": [
      {"measurement": "IC50", "setting": "Trypanosoma cruzi", "value": 9.2, "unit": "µM"},
      {"measurement": "CC50 at 24 h", "setting": "[1]", "value": 38.9, "unit": "µM"},
      {"measurement": "Ratio LC50/IC50", "setting": "[2]", "value": 4.23}
    ]}
  ]
}
